Read-outs that look alike come from different tables or passages of the source.
What was measured:
NCI cell panel = assay: Cytotoxicity, NCI cell panel (growth inhibition, MTT assay); conditions: Homo sapiens, read-out: Cytotoxicity: NCI cell panel IC50
Text: The proliferation of cells may be dependent on the PI-3 kinase-Akt-mTOR signaling pathway. In addition, signaling through PI-3 kinase and Akt appears to inhibit apoptosis. […] The MTT assay is a standard colorimetric assay for measuring cellular proliferation (cell growth). It is universally used to determine cytotoxicity of potential medicinal agents and other toxic materials. Yellow MTT (3-(4,5-Dimethylthiazol-2-yl)-2,5-diphenyltetrazolium bromide) is reduced to purple formazan in the mitochondria of living cells. This reduction takes place only when mitochondrial reductase enzymes are active, and therefore conversion is directly related to the number of viable (living) cells. […] Toxicities are measured at the maximum tolerated dose or the highest dose tested. […] Alanine aminotranferease (ALT) and aspartate aminotransferase (AST) are enzymes located in liver cells that leak out into the general circulation when liver cells are injured. […] A low liver toxicity and a high lymphocyte toxicity as a surrogate for inhibition of tumor cell growth is the desirable feature.

PI-3 kinase = type: biochemical; conditions: read-out: PI-3 kinase inhibition IC50
mTOR = mTOR (Homo sapiens, UniProt P42345); assay: mTOR inhibition (Table 1); type: biochemical
[1] = system: HT-29 human colon cancer cells; assay: Cytotoxicity / cell growth inhibition in HT-29 cells, cell number by flow cytometry; type: cell-based; conditions: read-out: growth inhibitory concentration 50% (IC50)
Experimental: The compounds were added from a 10 mg/ml stock solution in ethanol. Cell number was determined after 3 days by flow cytometry using a Guava EasyCyte Plus flow cytometer (Guava Technologies). The results are expressed as cell number at the end of the assay as percent of the control value with no drug. Values are the mean of 3 determinations and bars are standard deviation.

[2] = Stability of PX-866 in buffer systems by HPLC; type: physicochemical; conditions: for % remaining / % degradation: 1 mg/mL; for % remaining: within 2 hours, 4° C.; for % degradation: after 2 hours of storage
Experimental: This solution was used as a stock to make the various test buffer solutions to be analyzed. The stock, in each case, was diluted 1:10 to a final storage concentration of 1 mg/mL with 5% dextrose for injection (D5W), sterile water for injection (SW), 0.9% sodium chloride for injection (NS), absolute ethanol (EtOH), and 20 mM sodium phosphate (NaH2PO4) buffer. Prior to analysis the test buffers were further diluted 1:100, to a final analytical concentration of 10 μg/mL, with 50:50 0.2% formic acid:methanol, v:v. 50 μL of each sample was then injected into the HPLC system (Alliance 2695 Separation Module, Waters, Milford, Mass.; see Table 2 for HPLC parameters) for analysis. The 2 hour and 24 hour test samples were stored, undiluted, at 4° C. prior to analysis while the 0 hour samples were immediately quantified following dilution.

[3] = In vitro metabolism in murine S9 fractions; type: in vitro ADME; conditions: phase I, phase II and phase I/II reactions, 60 min
Experimental: Metabolites generated in these reactions were identified by HPLC runs, using a wavelength of 310 nm (see FIG. 6C). Peaks representing metabolites were identified by comparing the HPLC profiles (at 310 nm) in chromatograms from 0 min and 60 min reaction times. The corresponding mass spectral (MS) analysis of these peaks, using quadrupolar time-of-flight MS allowed the accurate mass of the metabolites to be determined (see FIG. 6D). Metabolynx software (Waters-MicroMass, Milford, Mass.) was used to interpret the spectra.
We identified the M#1 as a reduction product which is most probably a non-microsomal carbonyl reduction of a ketone to a secondary alcohol, as described in previous metabolism studies. In addition, M#2-3 were the same reduction products however, the alteration in retention time may indicate that the molecule undergoes reduction in sites other than that observed with M#1.

[4] = from U.S. application Ser. No. 11/178,553; cited from earlier work
[5] = system: phospho-Ser^473-Akt in HT-29 colon cancer cells; assay: Inhibition of EGF-dependent activation of Akt (phospho-Ser473-Akt western blot); type: cell-based, human; conditions: HT-29 cells, 4 hours exposure, EGF 50 ng/ml for 20 minutes
Experimental: The cells were then stimulated with epidermal growth factor (EGF) at 50 ng/ml for 20 minutes. Cells were lysed and the proteins were separated on an SDS-PAGE and transferred to nitrocellulose.

[6] = biological target: T1, recombinant bovine p110α/p85α (Bos taurus, UniProt P32871); assay: Recombinant PI-3 kinase inhibition, [32P]γ-ATP dependent phosphorylation of phosphatidylinositol; type: biochemical
T1 construct: purchased Jena Bioscience, Jena, Germany

[7] = biological target: T2, recombinant human p110δ/p85α (Homo sapiens, UniProt O00329); assay: as above; type: biochemical
T2 construct: purchased Upstate, Charlottesville, Va

[8] = HT-29 cells, 3 days, cell number as percent of control

T2 sequence (O00329 whole entry): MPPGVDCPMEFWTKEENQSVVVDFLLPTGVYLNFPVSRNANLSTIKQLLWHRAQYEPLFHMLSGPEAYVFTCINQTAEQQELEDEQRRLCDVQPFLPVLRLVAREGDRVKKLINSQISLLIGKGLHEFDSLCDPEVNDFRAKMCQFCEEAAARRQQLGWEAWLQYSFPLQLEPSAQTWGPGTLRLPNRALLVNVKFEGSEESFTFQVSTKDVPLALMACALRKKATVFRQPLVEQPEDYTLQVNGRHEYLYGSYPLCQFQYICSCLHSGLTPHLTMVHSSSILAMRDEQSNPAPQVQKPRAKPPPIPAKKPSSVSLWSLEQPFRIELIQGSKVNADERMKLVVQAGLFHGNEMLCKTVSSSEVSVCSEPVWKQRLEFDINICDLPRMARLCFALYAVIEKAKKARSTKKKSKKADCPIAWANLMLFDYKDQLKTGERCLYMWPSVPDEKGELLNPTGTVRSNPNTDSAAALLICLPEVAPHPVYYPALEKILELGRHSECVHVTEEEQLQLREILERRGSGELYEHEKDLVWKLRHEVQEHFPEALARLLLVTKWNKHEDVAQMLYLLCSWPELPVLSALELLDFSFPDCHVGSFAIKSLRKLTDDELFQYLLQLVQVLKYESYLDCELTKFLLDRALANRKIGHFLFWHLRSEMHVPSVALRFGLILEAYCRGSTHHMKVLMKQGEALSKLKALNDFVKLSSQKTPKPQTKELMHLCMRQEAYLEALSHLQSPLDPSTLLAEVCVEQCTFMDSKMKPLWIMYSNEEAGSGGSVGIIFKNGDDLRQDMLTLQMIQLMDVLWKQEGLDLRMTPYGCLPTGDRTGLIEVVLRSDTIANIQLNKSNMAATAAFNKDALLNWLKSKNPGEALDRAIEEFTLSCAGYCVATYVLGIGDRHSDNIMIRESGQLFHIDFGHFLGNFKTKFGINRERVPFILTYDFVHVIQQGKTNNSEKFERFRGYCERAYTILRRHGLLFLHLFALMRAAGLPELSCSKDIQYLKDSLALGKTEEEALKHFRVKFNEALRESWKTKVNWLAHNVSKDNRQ
T2 sequence (P27986 whole entry partner): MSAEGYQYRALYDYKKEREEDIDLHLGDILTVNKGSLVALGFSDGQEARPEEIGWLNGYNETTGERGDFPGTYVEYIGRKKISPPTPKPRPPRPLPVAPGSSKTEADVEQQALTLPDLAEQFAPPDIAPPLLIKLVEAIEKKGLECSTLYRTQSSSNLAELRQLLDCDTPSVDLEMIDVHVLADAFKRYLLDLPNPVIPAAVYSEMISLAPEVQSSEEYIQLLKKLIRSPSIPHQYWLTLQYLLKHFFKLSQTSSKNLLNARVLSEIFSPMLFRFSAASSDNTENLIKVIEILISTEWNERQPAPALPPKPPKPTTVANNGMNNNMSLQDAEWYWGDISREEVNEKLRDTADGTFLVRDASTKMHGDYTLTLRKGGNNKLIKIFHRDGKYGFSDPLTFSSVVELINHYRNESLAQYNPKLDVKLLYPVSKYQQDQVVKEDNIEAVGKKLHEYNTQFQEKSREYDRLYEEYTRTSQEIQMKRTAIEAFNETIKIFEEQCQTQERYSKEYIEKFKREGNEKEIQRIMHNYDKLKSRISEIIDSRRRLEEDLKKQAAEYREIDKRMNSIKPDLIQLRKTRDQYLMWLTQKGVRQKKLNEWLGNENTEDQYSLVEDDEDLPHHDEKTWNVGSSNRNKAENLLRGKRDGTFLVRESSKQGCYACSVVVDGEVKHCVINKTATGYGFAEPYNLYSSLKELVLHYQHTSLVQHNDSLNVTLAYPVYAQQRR
T1 sequence (P32871 whole entry): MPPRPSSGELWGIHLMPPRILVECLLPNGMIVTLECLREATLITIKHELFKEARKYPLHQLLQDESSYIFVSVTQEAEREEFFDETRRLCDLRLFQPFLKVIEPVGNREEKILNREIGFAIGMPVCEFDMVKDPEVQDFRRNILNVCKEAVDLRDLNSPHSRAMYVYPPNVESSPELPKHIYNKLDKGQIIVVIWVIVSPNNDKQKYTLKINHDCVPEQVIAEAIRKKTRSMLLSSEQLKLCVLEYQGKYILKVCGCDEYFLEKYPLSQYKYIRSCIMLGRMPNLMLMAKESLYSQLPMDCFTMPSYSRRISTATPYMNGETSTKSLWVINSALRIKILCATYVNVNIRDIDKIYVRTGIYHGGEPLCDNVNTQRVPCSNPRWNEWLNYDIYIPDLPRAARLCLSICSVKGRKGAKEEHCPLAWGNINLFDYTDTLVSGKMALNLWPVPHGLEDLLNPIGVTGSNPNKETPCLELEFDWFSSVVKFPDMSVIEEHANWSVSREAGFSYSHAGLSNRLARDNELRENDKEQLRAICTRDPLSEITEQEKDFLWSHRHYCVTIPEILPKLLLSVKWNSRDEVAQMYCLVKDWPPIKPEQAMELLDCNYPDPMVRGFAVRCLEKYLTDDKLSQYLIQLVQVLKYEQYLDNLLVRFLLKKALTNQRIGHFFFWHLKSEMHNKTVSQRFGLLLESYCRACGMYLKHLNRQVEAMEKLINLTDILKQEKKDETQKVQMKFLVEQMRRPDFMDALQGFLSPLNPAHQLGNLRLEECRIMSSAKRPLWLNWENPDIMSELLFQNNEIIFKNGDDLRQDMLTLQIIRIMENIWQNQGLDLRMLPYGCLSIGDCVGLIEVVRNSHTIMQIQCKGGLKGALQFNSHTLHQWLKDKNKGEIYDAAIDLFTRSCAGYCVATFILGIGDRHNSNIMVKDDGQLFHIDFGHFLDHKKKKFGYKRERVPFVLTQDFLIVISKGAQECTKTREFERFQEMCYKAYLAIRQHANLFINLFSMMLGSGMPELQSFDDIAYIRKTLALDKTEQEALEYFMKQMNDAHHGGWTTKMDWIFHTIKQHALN
T1 sequence (P23727 whole entry partner): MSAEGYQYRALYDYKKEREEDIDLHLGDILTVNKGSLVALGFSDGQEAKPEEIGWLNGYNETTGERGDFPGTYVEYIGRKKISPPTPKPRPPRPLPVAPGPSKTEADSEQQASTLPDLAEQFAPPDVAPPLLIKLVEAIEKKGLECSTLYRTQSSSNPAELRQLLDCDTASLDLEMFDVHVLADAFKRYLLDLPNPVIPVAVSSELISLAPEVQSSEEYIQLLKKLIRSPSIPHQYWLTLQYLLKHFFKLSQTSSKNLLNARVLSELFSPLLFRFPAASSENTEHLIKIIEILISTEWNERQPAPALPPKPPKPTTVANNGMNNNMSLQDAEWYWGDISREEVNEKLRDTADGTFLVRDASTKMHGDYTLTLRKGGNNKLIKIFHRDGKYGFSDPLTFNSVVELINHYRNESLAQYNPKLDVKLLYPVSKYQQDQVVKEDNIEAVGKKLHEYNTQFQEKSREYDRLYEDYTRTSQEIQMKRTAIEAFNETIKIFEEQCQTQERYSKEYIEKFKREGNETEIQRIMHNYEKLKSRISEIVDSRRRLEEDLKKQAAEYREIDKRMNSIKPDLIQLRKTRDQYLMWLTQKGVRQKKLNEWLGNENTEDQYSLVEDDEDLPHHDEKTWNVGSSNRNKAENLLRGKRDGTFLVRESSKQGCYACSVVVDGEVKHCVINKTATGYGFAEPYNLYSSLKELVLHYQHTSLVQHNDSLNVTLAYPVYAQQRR

Row | Compound | IC50 (NCI cell panel) [µM] | IC50 (PI-3 kinase) [µM] | IC50 for inhibition of phospho-Ser473-Akt (ratio to total Akt) [5] | IC50 [1, 8] [µM] | inhibition of p110α isoform of PI-3 kinase [6] | inhibition of p110δ isoform of PI-3 kinase [7] | other results
1 | COC[C@H]1OC(=O)c2coc3c2[C@@]1(C)C1=C(C3=O)[C@@H]2CCC(=O)[C@@]2(C)C[C@H]1OC(C)=O [Wortmannin, wortmannin, reference compound] | 8.9 |  |  |  |  |  | 
2 | C=CCN(/C=C1/C(=O)O[C@H](COC)[C@@]2(C)C1=C(O)C(=O)C1=C2[C@H](OC(C)=O)C[C@]2(C)C(=O)CC[C@@H]12)CC=C [PX-866, Acetic acid 4-diallylaminomethylene-6-hydroxy-1-α-methoxymethyl-10β,13β-dimethyl-3,7,17-trioxo-1,3,4,7,10,11β,12,13,14α,15,16,17-dodecahydro-2-oxa-cyclopenta[α]phenanthren-11-yl ester] | 2.2 | 0.0005 |  |  |  |  | IC50 (mTOR; read-out: mTOR inhibition IC50): > 3 µM; IC50 ([1]; Homo sapiens, HT-29, 72 h): 4 µM; % remaining ([2]; 20 mM sodium phosphate buffer): > 60%; % remaining ([2]; D5W (5% dextrose for injection)): > 80%; % degradation ([2]; EtOH (absolute ethanol)): < 10%; % degradation ([2]; NS (0.9% sodium chloride for injection)): < 10%; % degradation ([2]; SW (sterile water for injection)): < 10%; stability from 2 to 24 hours ([2]; regardless of the buffer system employed): maintained relative stability; type of metabolites formed [3]: only Phase I-type metabolites were formed; blood levels following oral administration [4]: low
3 | 17-hydroxy PX-866 [PX-866-2] |  |  | 0.04 µM | > 50 | as active as PX-866 or wortmannin | as active as PX-866 or wortmannin | 
4 | COCC1OC(=O)C(=CN2CCCC2)C2=C(O)C(=O)C3=C(C(OC(C)=O)CC4(C)C(=O)CCC34)C21C (stereo not drawn) [PX-867, Acetic acid 6-hydroxy-1α-methoxymethyl-10β,13β-dimethyl-3,7,17-trioxo-4-pyrrolidin-1-yl-methylene-1,3,4,7,10,11β,12,13,14α,15,16,17-dodecahydro-2-oxa-cyclopenta[α]phenanthren-11-yl] | 0.5 | 0.0011 |  |  |  |  | IC50 (mTOR): > 3 µM
5 | 11-deacetylated,17-hydroxy PX-866 [PX-866-1] |  |  | greater than 70 nM | 4.5 | considerably less active | considerably less active | 
